Test [1] concerns the target T1, GidA (Escherichia coli, UniProt P0A6U3).
T1 sequence (P0A6U3 1-629): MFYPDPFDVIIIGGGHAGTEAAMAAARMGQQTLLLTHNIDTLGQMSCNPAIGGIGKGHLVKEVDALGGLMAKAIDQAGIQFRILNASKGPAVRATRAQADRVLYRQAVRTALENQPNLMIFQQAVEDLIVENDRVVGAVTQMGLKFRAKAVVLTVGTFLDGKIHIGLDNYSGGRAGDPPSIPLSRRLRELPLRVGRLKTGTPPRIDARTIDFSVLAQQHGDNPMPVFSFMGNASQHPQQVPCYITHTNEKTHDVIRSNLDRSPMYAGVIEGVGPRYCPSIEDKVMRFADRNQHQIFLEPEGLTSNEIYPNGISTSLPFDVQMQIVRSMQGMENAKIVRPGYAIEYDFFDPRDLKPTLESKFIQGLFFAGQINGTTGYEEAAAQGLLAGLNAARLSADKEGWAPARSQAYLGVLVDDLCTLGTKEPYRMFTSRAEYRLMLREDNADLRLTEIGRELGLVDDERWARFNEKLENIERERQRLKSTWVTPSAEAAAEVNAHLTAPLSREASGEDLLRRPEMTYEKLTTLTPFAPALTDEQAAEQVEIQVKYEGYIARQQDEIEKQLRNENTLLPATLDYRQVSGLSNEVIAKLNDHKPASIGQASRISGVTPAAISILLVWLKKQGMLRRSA
Put plainly: Affinity of GidA for FAD and NADH. It counts as binding.

The target in test [2] is T1, GidA. Particulars: read-out: Kd (affinity of GidA for NADH); cited from earlier work.
Test [3] deals with TrmFO. Particulars: cited from earlier work.

Read-outs that look alike come from different tables or passages of the source.

In test [1], `Cc1cc2nc3c(=O)[nH]c(=O)nc-3n(C[C@H](O)[C@H](O)[C@H](O)COP(=O)(O)OP(=O)(O)OC[C@H]3O[C@@H](n4cnc5c(N)ncnc54)[C@H](O)[C@@H]3O)c2cc1C` [FAD] gave an equilibrium dissociation constant (Kd) of around 3 µM.
`NC(=O)C1=CN([C@@H]2O[C@H](COP(=O)(O)OP(=O)(O)OC[C@H]3O[C@@H](n4cnc5c(N)ncnc54)[C@H](O)[C@@H]3O)[C@@H](O)[C@H]2O)C=CC1` [NADH]: in test [2], the equilibrium dissociation constant (Kd) is around 11 µM.
For the molecule (6S) THF, the “concentrations of THF that inhibit the methylene-THF-dependent activity of TrmFO” value in test [3] is listed as “higher than 2 µM”.

A word on the Kd: it is the concentration at which binding is half-saturated.

The values are drawn from PMC2790889 (Nucleic Acids Research, 2009).
